# Experimental data: patent EP1171440B1, “SUBSTITUTED-3-CYANO-[1.7],[1.5], AND [1.8]-NAPHTHYRIDINE INHIBITORS OF TYROSINE KINASES” (Wyeth Holdings Corporation, priority 1999, dated 2000)
# pIC50: −log10 of the molar value. Where two headings read alike, the source gives them in different places.
# Columns and labels:
# A2780DDP = experiment: Inhibition of Cancer Cell Growth as Measured by Cell Number (Sulforhodamine B); assay type: cell-based, Human; conditions: 48 hours exposure
# Method: (§1) After 48 hours exposure to test compounds, cells were fixed with trichloroacetic acid, and stained with Sulforhodamine B. After washing with trichloroacetic acid, bound dye was solubilized in 10 mM Tris base and optical density was determined using a plate reader. Under conditions of the assay the optical density is proportional to the number of cells in the well. […] The test procedure is described in details by Philip Skehan et. al, J.Natl. Canc. […] The Her2Neu cell line is a 3T3 line that has bbeen transfected with Her2 receptor kinase.
# A2780S = experiment: as above; assay type: cell-based, Human; conditions: 48 hours exposure
# Method: as §1
# A431 = experiment: as above; assay type: cell-based, Human; conditions: 48 hours exposure
# Method: as §1
# LOX = experiment: as above; assay type: cell-based, Human; conditions: 48 hours exposure
# Method: as §1
# MDA435 = experiment: as above; assay type: cell-based, Human; conditions: 48 hours exposure
# Method: as §1
# SKBR3 = experiment: as above; assay type: cell-based, Human
# Method: as §1
# SW620 = experiment: as above; assay type: cell-based, Human
# Method: as §1
# [1] = biological target: T1, EGF-R Kinase (recombinant enzyme) (Homo sapiens, UniProt P00533); experiment: Inhibition of Epidermal Growth Factor Receptor Kinase (EGF-R) using recombinant enzyme, RR-SRC peptide phosphorylation with 33P-ATP; assay type: biochemical
# T1 construct: containing the EGFR cDNA encoding amino acids 645 - 1186 preceded by Met-Ala-(His)6; made in house; host or cells: Sf9 insect cells infected with recombinant baculovirus vHcEGFR52
# T1 sequence (P00533 669-1210): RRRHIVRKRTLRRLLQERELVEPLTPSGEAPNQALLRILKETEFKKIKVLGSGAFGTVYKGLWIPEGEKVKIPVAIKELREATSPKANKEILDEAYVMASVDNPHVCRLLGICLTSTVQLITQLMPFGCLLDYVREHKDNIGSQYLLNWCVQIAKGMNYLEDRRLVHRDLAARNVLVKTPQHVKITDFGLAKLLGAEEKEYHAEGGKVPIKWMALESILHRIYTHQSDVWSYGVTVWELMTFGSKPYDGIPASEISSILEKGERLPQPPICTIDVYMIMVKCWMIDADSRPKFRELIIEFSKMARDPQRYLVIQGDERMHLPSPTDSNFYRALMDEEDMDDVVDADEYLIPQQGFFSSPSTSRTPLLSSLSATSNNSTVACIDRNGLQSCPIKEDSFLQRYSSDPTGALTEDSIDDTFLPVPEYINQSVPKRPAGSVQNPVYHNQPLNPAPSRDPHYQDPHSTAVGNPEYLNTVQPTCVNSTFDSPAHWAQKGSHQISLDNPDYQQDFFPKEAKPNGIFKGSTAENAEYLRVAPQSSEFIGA
# Method: Representative test compounds were evaluated for their ability to inhibit the phosphorylation of the tyrosine residue of a peptide substrate catalyzed by the enzyme epidermal growth factor receptor kinase. […] The enzyme used in this assay is the His-tagged cytoplasmic domain of EGFR. A recombinant baculovirus (vHcEGFR52) was constructed containing the EGFR cDNA encoding amino acids 645 - 1186 preceded by Met-Ala-(His)6 . Sf9 cells in 100 mm plates were infected at an moi of 10 pfu/cell and cells were harvested 48 h post infection. A cytoplasmic extract was prepared using 1% Triton X-100 and applied to Ni-NTA column. After washing the column with 20 mM imidazole, HcEGFR was eluted with 250 mM imidazole (in 50 mM Na2HPO4, pH 8.0, 300 mM NaCl). Fractions collected were dialyzed against 10 mM HEPES, pH 7.0, 50 mM NaCl, 10% glycerol, 1ug/mL antipain and leupeptin and 0.1 mM Pefabloc SC. The protein was frozen in dry ice/methanol and stored -70° C.
# Test compounds were made into 10 mg/mL stock solutions in 100% dimethylsulfoxide (DMSO). Prior to experiment, stock solutions were diluted to 500 uM with 100% DMSO and then serially diluted to the desired concentration with HEPES buffer (30 mM HEPES pH 7.4).
# For the enzyme reaction, 10 uL of each inhibitor (at various concentrations) were added to each well of a 96-well plate. To this was added 3 uL of enzyme (1:10 dilution in 10mM HEPES, pH 7.4 for final conc. of 1:120). This was allowed to sit for 10 min on ice and was followed by the addition of 5 ul peptide (80 uM final conc.), 10ul of 4X Buffer (Table A), 0.25 uL ^33P-ATP and 12 uL H2O. The reaction was allowed to run for 90 min at room temperature and was followed by spotting the entire volume on to precut P81 filter papers. The filter discs were washed 2X with 0.5% phosphoric acid and radioactivity was measured using a liquid scintillation counter. Table A
# The IC50 is the concentration of test compound needed to reduce the total amount of phosphorylated substrate by 50%. The % inhibition of the test compound was determined for at least three different concentrations and the IC50 value was evaluated from the dose response curve. […] CPM(control) is in units of counts per minute and was a number expressing the amount of radiolabeled ATP (γ-^33P) incorporated into the RR-SRC peptide substrate by the enzyme after 90 minutes at room temperature in the absence of test compound as measured by liquid scintillation counting. The CPM values were corrected for the background counts produced by ATP in the absence of the enzymatic reaction. Where it was possible to determine an IC50 value, this is reported in TABLE 1 otherwise the % inhibition at 0.5 µM concentration of test compound is shown in TABLE 1.
# [2] = biological target: Epithelial Cell Kinase (ECK) (Homo sapiens, UniProt P29317); experiment: Inhibition of Epithelial Cell Kinase (ECK), nonradioactive peptide phosphorylation plate assay; assay type: biochemical; conditions: pH 7.2; multiple entries = tested multiple times
# Chain of Epithelial Cell Kinase (ECK) (P29317 24-976, species assumed): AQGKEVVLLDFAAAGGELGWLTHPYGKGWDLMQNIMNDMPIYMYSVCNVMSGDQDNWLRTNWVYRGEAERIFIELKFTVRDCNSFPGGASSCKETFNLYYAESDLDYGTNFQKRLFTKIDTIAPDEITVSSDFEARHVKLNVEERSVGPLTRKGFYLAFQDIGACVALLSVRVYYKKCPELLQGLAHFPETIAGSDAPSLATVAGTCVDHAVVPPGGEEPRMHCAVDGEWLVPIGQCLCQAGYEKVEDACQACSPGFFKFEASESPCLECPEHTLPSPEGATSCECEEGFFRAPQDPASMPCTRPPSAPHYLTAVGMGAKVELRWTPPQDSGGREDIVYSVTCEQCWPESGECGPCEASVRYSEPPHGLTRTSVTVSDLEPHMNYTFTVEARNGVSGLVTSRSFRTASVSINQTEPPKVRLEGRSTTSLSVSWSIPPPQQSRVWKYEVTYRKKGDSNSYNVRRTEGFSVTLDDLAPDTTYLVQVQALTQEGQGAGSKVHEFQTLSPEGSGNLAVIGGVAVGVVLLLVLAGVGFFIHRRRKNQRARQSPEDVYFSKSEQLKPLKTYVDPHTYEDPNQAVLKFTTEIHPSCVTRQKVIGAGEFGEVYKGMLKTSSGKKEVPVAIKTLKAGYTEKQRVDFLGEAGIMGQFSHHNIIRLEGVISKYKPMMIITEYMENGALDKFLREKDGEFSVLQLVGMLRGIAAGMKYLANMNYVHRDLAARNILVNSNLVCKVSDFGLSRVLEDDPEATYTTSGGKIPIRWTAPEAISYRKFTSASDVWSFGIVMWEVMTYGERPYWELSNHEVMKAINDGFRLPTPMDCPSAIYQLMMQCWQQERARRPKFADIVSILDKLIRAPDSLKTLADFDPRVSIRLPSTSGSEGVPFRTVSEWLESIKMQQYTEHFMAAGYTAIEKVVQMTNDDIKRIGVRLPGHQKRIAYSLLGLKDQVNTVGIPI
# Method: In this standard pharmacological test procedure, a biotinylated peptide substrate is first immobilized on neutravidin-coated microtiter plates. The test drug, the Epithelial Cell Kinase (ECK), Mg^++, sodium vanadate (a protein tyrosine phosphatase inhibitor), and an appropriate buffer to maintain pH (7.2) are then added to the immobilized substrate-containing microtiter wells. ATP is then added to initiate phosphorylation. After incubation, the assay plates are washed with a suitable buffer leaving behind phosphorylated peptide which is exposed to horse radish peroxidase (HRP)-conjugated anti-phosphotyrosine monoclonal antibody. The antibody-treated plates are washed again and the HRP activity in individual wells is quantified as a reflection of degree of substrate phosphorylation. This nonradioactive format was used to identify inhibitors of ECK tyrosine kinase activity where the IC50 is the concentration of drug that inhibits substrate phosphorylation by 50%. Multiple entries for a given compound indication it was tested multiple times.
# [3] = biological target: Mitogen Activated Protein Kinase (Mek-Erk) (Homo sapiens, UniProt P28482+Q02750); experiment: Mitogen Activated Protein Kinase (MAPK) coupled MEK 1 / ERK2 assay; assay type: biochemical; conditions: separate entries = evaluated more than one time
# Chain of Mitogen Activated Protein Kinase (Mek-Erk) (P28482 2-360): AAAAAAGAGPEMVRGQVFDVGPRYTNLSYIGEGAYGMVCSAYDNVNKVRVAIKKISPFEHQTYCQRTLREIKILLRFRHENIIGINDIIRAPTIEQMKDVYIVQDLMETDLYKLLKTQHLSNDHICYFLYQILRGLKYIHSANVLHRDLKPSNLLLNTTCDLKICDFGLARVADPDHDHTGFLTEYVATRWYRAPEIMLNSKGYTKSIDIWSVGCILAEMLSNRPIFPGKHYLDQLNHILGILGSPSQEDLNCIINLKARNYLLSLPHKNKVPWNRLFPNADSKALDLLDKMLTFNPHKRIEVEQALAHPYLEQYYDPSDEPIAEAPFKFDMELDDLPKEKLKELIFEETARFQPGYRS
# Chain of Mitogen Activated Protein Kinase (Mek-Erk) (Q02750 whole entry): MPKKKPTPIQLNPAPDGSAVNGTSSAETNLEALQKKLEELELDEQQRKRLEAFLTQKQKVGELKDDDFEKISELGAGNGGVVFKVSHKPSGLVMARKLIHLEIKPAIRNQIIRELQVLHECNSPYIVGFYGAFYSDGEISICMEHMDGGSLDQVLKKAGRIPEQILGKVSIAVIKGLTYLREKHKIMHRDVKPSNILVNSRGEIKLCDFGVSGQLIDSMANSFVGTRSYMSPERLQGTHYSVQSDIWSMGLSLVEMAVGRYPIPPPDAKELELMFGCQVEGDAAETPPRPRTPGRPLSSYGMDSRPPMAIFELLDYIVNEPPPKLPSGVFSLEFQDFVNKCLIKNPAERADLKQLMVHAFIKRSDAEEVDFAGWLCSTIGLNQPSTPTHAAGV
# Method: To evaluate inhibitors of the MAP (mitogen activated protein) kinase a two component coupled standard pharmacological test procedure, which measures phosphorylation of a serine/threonine residue in an appropriate sequence in the substrate in the presence and absence of a putative inhibitor, was used. Recombinant human MEK 1 (MAPKK) was first used to activate recombinant human ERK2 (MAPK) and the activated MAPK (ERK) was incubated with substrate (MBP peptide or MYC peptide) in the presence of ATP, Mg^+2 and radiolabeled ^33P ATP. The phosphorylated peptide was captured on a P 81 phosphocellulose filter (paper filter or embedded in microtiter plate) washed and counted by scintillation methods.
# The peptide substrates used in the assay are MBP, peptide substrate ([…]), or synthetic Myc substrate, ([…]•5 TFA. The recombinant enzymes used were prepared as GST fusion proteins of human ERK 2 and human MEK 1. Inhibitor samples were prepared as 10X stocks in 10% DMSO and an appropriate aliquot was used to deliver either 10 ug/ml for a single point screening dose or 100, 10, 1, and 0.1 uM final concentration for a dose response curve. Final DMSO concentrations were less than or equal to 1%.
# The reaction was run as follows in 50 mM Tris kinase buffer, pH 7.4 in a reaction volume of 50 ul. The appropriate volume of kinase buffer and inhibitor sample was added to the tube. Appropriate dilution of enzyme was delivered to give 2-5 ug recombinant MAPK (Erk ) per tube. The inhibitor was incubated with MAPK (Erk) for 30 min at 0 deg. C. Recombinant Mek (MAPKK) ( 0.5-2.5 ug) or fully activated Mek (0.05-0.1 units) was added to activate the Erk and incubated for 30 min at 30° C. Then substrate and gamma ^33P ATP was were added to give a final concentration of 0.5- 1 mM MBPP or 250-500 uM Myc; 0.2-0.5 uCi gamma ^33P ATP/tube; 50 µM ATP final concentration. Samples were incubated at 30°C for 30 minutes and the reaction was stopped by adding 25 µl of ice cold 10 %TCA. After samples were chilled on ice for 30 min, 20 µl of sample was transferred onto P 81 phosphocellulose filter paper or appropriate MTP with embedded P 81 filter. Filter papers or MTP were washed 2 times with a large volume of 1% acetic acid, then 2 times with water. The filters or MTP were briefly air dried before addition of scintillant and samples were counted in the appropriate scintillation counter set up for reading ^33P isotope. Samples included a positive control (activated enzyme plus substrate); a no enzyme control; a no substrate control; samples with different concentrations of putative inhibitor; and samples with reference inhibitors (other active compounds or non-specific inhibitors such as staurosporine or K252 B).
# The raw data was captured as cpm. Sample replicates were averaged and corrected for background count. Mean cpm data was tabulated by group and % inhibition by a test compound was calculated as (corrected cpm control- corrected. cpm sample/control) X 100 = % inhibition. If several concentrations of inhibitor were tested, IC50 values (the concentration which gives 50% inhibition) were determined graphically from the dose response curve for % inhibition or by an appropriate computer program. The results obtained for representative compounds of this invention are listed in TABLE 3 where there may be separate entries for the same compound; this is an indication that the compound was evaluated more than one time.
# 3T3 = experiment: Inhibition of Cancer Cell Growth as Measured by Cell Number (Sulforhodamine B); assay type: cell-based; conditions: 48 hours exposure
# Method: (§2) Human tumor cell lines were plated in 96-well plates (250 µl/well, 1-6 x 10^4 cells/ml) in RPMI 1640 medium, containing 5% FBS (Fetal Bovine Serum). […] After 48 hours exposure to test compounds, cells were fixed with trichloroacetic acid, and stained with Sulforhodamine B. After washing with trichloroacetic acid, bound dye was solubilized in 10 mM Tris base and optical density was determined using a plate reader. Under conditions of the assay the optical density is proportional to the number of cells in the well. IC50s (concentrations causing 50% inhibition of cell growth) were determined from the growth inhibition plots. The test procedure is described in details by Philip Skehan et. al, J.Natl. Canc. Inst., 82, 1107-1112 (1990). […] Information about some of the cell lines used in these test procedures is available from the American […]: Cell Lines and Hybridomas, 1994 Reference Guide, 8th Edition. The Her2Neu cell line is a 3T3 line that has bbeen transfected with Her2 receptor kinase.
# MCF7 = experiment: as above; assay type: cell-based; conditions: Homo sapiens, 48 hours exposure
# Method: as §2
# [4] = recombinant His-tagged cytoplasmic domain of EGFR, RR-SRC peptide, 90 min at room temperature, read-out: IC50
# [5] = 0.5 µM concentration of test compound, read-out: % Inhibition @ 0.5
# [6] = Homo sapiens, A-431, 48 h, read-out: IC50
# [7] = Homo sapiens, MDA435, 48 h, read-out: IC50
# [8] = Homo sapiens, SK-BR-3, 48 hours exposure, read-out: IC50
# [9] = Homo sapiens, SW-620, 48 hours exposure, read-out: IC50
# [10] = Homo sapiens, 48 h, read-out: IC50
Compound,"pIC50 [1, 4]",pIC50 [2],pIC50 [3],IC50 (A431; [6]),IC50 (SKBR3; [8]),IC50 (SW620; [9]),also measured
1-[4-(3-Bromo-phenylamino)-3-cyano-[1.7]naphthyridin-6-yl]-4-dimethylamino- pyridinium fluoride [Example 65],–,–,–,–,–,–,IC50 (A2780DDP): 52 µg/mL; IC50 (A2780S): 31 µg/mL; IC50 (A431): 59 µg/mL; IC50 (LOX): 56 µg/mL; IC50 (MDA435): 47 µg/mL; IC50 (SKBR3; 48 hours exposure): 41 µg/mL; IC50 (SW620; 48 hours exposure): 42 µg/mL
"CC#CC(=O)Nc1cnc2ncc(C#N)c(Nc3cccc(Br)c3)c2c1 [Example 24, But-2-ynoic acid [5-(3-bromo-phenylamino)-6-cyano-[1.8]-naphthyridin-3-yl]-amide]",7.00,7.52,< 4.00,–,–,–,–
"Cc1ccc(Nc2c(C#N)cnc3ccc(OCCCN4CCOCC4)nc23)cc1O [Example 43, 4-(3-Hydroxy-4-methyl-phenylamino)-6-(3-morpholin-4-yl-propoxy)-[1.5]naphthyridine-3-carbonitrile]",6.00,< 5.64,< 4.00,–,–,–,"inhibition at 0.5 µM [1, 5]: 37.1%"
"N#Cc1cnc2ccc(OCCCN3CCOCC3)nc2c1Nc1cccc(Br)c1 [Example 44, 4-(3-Bromo-phenylamino)-6-(3-morpholin-4-yl-propoxy)-[1.5]naphthyridine-3-carbonitrile]",6.00,< 5.68,< 4.00,–,–,–,"inhibition at 0.5 µM [1, 5]: 25.4%"
"CN(C)CC=CC(=O)Nc1cc2c(Nc3cccc(Br)c3)c(C#N)cnc2cn1 [Example 62, 4-Dimethylamino-but-2-enoic acid, [4-(3-bromo-phenylamino)-3-cyano-[1.7]naphthyridin-6-yl]-amide]",–,–,–,0.088 µg/mL,0.0357 µg/mL,0.356 µg/mL,"pIC50 [1]: 8.30; inhibition at 0.5 µM ([1]; read-out: % Inhibition @ 0.5 (µM)): 97.4%; IC50 (MDA435; [7]): 0.464 µg/mL; IC50 (3T3): 0.2716 µg/mL; IC50 (3T3; Mus musculus, NIH3T3, 48 h, read-out: IC50): 0.373 µg/mL"
"N#Cc1cnc2cnc(NCCN3CCOCC3)cc2c1Nc1cccc(Br)c1 [Example 63, 4-(3-Bromo-phenylamino)-6-(2-morpholino-4-yl-ethylamino)-[1.7]naphthyridine-3-carbonitrile]",6.00,–,–,0.5 µg/mL,0.4 µg/mL,41 µg/mL,"IC50 (A2780DDP; [10]): 0.8 µg/mL; IC50 (A2780S; [10]): 0.5 µg/mL; IC50 (LOX; Homo sapiens, read-out: IC50): 57 µg/mL; IC50 (MDA435; [7]): 49 µg/mL"
"CNc1cc2c(Nc3cccc(Br)c3)c(C#N)cnc2cn1 [Example 64, 4-(3-Bromo-phenylamino)-6-methylamino-[1.7]naphthyridine-3-carbonitrile]",8.22,–,–,0.31 µg/mL,1.88 µg/mL,4.62 µg/mL,"IC50 (A431): 0.209 µg/mL; IC50 (LOX; Homo sapiens, read-out: IC50): 3.6 µg/mL; IC50 (MCF7): 3.87 µg/mL"
"N#Cc1cnc2cnc(F)cc2c1Nc1ccc(F)c(Cl)c1 [Example 69, 4-(3-Chloro-4-fluoro-phenylamino)-6-fluoro-[1.7]naphthyridine-3-carbonitrile]",–,< 5.51,–,–,–,–,–
